Experimental data reported in US20130136740A1, “METHODS OF TREATING CANCER” (priority 2011, published 2013).

Assay: Serum phosphate in rats
Assay type: in vivo, Sprague Dawley rats
Conditions: daily dosing 50 mg/kg/day oral gavage, at 24 hour or 1 week
Description: FGFR1-ECD.339-Fc binds to the mitogenic FGFs with 10 to 100-fold higher affinity than to FGF-23. […] The potential biological impact of this relatively weak FGFR1-ECD.339-Fc/FGF-23 binding was investigated in rats following four weekly doses of FGFR1-ECD.339-Fc at a dose range of 10-200 mg/kg/qwk.
In the first experiment, Sprague Dawley rats (Charles River Labs; N=5/group) were dosed with vehicle, 10, 50 or 200 mg/kg/qwk of FGFR1-ECD.339-Fc for four weekly doses and plasma concentrations of FGFR1-ECD.339-Fc were determined throughout the study by an ELISA based detection method.
In the second experiment, Sprague Dawley rats (Charles River Labs; N=5/group) were administered the FGFR kinase inhibitor PD173074 (Chemdea, Ridgewood, N.J.; 50 mg/kg/day) or vehicle control by oral gavage for 7 days; or were administered FGFR1-ECD.339-Fc (200 mg/kg) or appropriate vehicle weekly by intravenous administration. Blood samples were collected at the time points indicated and serum phosphate was determined at 24 and 168 hours post-initiation of dosing (Idexx laboratories, Westbrook, Mass.).

Structure (SMILES): CCN(CC)CCCCNc1ncc2cc(-c3cc(OC)cc(OC)c3)c(NC(=O)NC(C)(C)C)nc2n1 [PD173043, reference compound]
- plasma phosphate levels: significantly elevated
